Measured values reported in PubChem BioAssay (NCI).
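Test compounds were applied to cells in 96-well plates for 48 hours at 5 doses. At the TGI there is no net growth.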

Tests used:
Experiment in all cases: inhibition of tumour cell growth, NCI panel, 48 h
[1] = system: DMS 114 small cell lung
[2] = system: HOP-92 NSCLC
[3] = system: M19-MEL melanoma
[4] = system: UO-31 renal
[5] = system: SK-MEL-28 melanoma
[6] = system: HL-60(TB) leukemia
[7] = system: HOP-18 NSCLC
[8] = system: 786-0 renal
[9] = system: OVCAR-8 ovarian
[10] = system: OVCAR-4 ovarian
[11] = system: HCT-15 colon
[12] = system: SN12C renal
[13] = system: ACHN renal
[14] = system: LXFL 529 NSCLC
[15] = system: NCI-H522 lung
[16] = system: MALME-3M melanoma
[17] = system: KM12 colon
[18] = system: SW-620 colon
[19] = system: SF-268 CNS
[20] = system: UACC-62 melanoma
[21] = system: SK-MEL-2 melanoma
[22] = system: HCT-116 colon
[23] = system: SF-539 CNS
[24] = system: HOP-62 NSCLC
[25] = system: RXF 393 renal
[26] = system: SF-295 CNS
[27] = system: HT29 colon
[28] = system: SK-MEL-5 melanoma
[29] = system: CCRF-CEM leukemia
[30] = system: M14 melanoma
[31] = system: U251 CNS
[32] = system: HCC-2998 colon
[33] = system: SNB-78 CNS
[34] = system: NCI-H23 lung
[35] = system: NCI-H460 lung
[36] = system: DLD-1 colon
[37] = system: CAKI-1 renal
[38] = system: IGROV1 ovarian
[39] = system: MOLT-4 leukemia
[40] = system: TK-10 renal
[41] = system: NCI-H226 lung
[42] = system: SNB-75 CNS
[43] = system: SK-OV-3 ovarian
[44] = system: A498 renal
[45] = system: EKVX NSCLC
[46] = system: DMS 273 small cell lung
[47] = system: COLO 205 colon
[48] = system: KM20L2 colon
[49] = system: SR leukemia
[50] = system: OVCAR-3 ovarian
[51] = system: SNB-19 CNS
[52] = system: A549 NSCLC
[53] = system: UACC-257 melanoma
[54] = system: XF 498 CNS

Measured: TGI

Cc1cccc(C)c1N1C(=O)C(=O)C(c2nc3ccccc3s2)/C(=N/NC(=O)NN)C1=O (centres undefined)
> 100 µM: all assays above
